Source: patent EP4682145A1, “BENZOHETEROCYCLIC COMPOUND, AND PREPARATION METHOD THEREFOR AND USE THEREOF” (Cascade Pharmaceuticals, Inc., priority 2023, dated 2024)

These compounds were tested against T1, human FFAR1 (GPR40) (Homo sapiens, UniProt O14842) (assay: NFAT-RE-based reporter gene activity assay (Dual-Glo luciferase) for GPR40 agonistic activity in co-transfected HEK293T cells). Conditions: 4-hour treatment.
T1 construct: Flag; expressed in transfected cells; host or cells: HEK293T
Format: cell-based
Procedure, shortened: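 HEK293T cells co-transfected with human FFAR1, NFAT-RE firefly luciferase and TK-Renilla plasmids; 24 h later treated 4 h with 10 half-log compound dilutions from 1 µM. Firefly/Renilla ratio normalised to DMSO; EC50 from four-parameter fit.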

T1 sequence (O14842 whole entry): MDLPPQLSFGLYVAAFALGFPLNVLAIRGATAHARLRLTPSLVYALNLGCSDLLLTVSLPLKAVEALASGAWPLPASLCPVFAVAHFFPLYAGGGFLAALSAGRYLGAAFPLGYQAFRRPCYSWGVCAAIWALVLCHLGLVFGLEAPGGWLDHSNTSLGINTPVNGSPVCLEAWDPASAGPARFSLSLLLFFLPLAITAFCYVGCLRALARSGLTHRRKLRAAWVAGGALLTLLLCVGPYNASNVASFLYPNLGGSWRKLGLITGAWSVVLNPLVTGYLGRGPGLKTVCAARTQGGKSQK

SMILES	EC50 [nM]
COc1ccc(F)c(N2CCC(c3oc4cc([C@H](CC(=O)O)C5CC5)ccc4c3-c3ccc(C(C)(C)C)cc3)CC2)c1 [Compound 170]	100 to 500
COc1ccc(F)c(N2CCC(c3oc4cc(C(CC(=O)O)C5CC5)ccc4c3-c3cccc(Cl)c3)CC2)c1 (stereo not shown) [Compound 171]	100 to 500
COc1ccc(F)c(N2CCC(c3oc4cc(C(CC(=O)O)C5CC5)ccc4c3-c3cccc(C(F)(F)F)c3)CC2)c1 (stereo not shown) [Compound 172]	100 to 500
COc1ccc(F)c(N2CCC(c3oc4cc([C@@H](CC(=O)O)C5CC5)ccc4c3-c3cccc(OC(F)(F)F)c3)CC2)c1 [Compound 173]	100 to 500
COc1ccc(F)c(N2CCC(c3oc4cc(C(CC(=O)O)C5CC5)ccc4c3-c3cccc(C#N)c3)CC2)c1 (stereo not shown) [Compound 174]	100 to 500
COc1ccc(F)c(N2CCC(c3oc4cc([C@@H](CC(=O)O)C5CC5)ccc4c3-c3ccc(C(C)O)cc3)CC2)c1 (stereo partly shown) [Compound 175]	> 500
COc1ccc(F)c(N2CCC(c3oc4cc([C@@H](CC(=O)O)C5CC5)ccc4c3-c3ccc(C(C)OC)cc3)CC2)c1 (stereo partly shown) [Compound 176]	100 to 500
COc1ccc(F)c(N2CCC(c3oc4cc([C@@H](CC(=O)O)C5CC5)ccc4c3-c3ccc(C(C)(C)O)cc3)CC2)c1 [Compound 177]	100 to 500
COc1ccc(F)c(N2CCC(c3oc4cc(C(CC(=O)O)C5CC5)ccc4c3-c3cccc(F)c3)CC2)c1 (stereo not shown) [Compound 178]	100 to 500
COc1ccc(-c2c(C3CCN(c4cc(OC)ccc4F)CC3)oc3cc([C@@H](CC(=O)O)C4CC4)ccc23)cc1 [Compound 179]	100 to 500
COc1ccc(F)c(N2CCC(c3oc4cc(C(CC(=O)O)C5CC5)ccc4c3-c3ccc(SC)cc3)CC2)c1 (stereo not shown) [Compound 181]	100 to 500
COc1ccc(F)c(N2CCC(c3oc4cc(C(CC(=O)O)C5CC5)ccc4c3-c3ccc(S(=O)(=O)C(C)C)cc3)CC2)c1 (stereo not shown) [Compound 183]	100 to 500
COc1ccc(F)c(N2CCC(c3oc4cc(C(CC(=O)O)C5CC5)ccc4c3-c3ccc(NC(C)C)cc3)CC2)c1 (stereo not shown) [Compound 184]	100 to 500
COc1ccc(F)c(N2CCC(c3oc4cc(C(CC(=O)O)C5CC5)ccc4c3-c3ccc(N(C)C(C)C)cc3)CC2)c1 (stereo not shown) [Compound 185]	100 to 500
COc1ccc(F)c(N2CCC(c3oc4cc(C(CC(=O)O)C5CC5)ccc4c3-c3ccc(N(C(C)=O)C(C)C)cc3)CC2)c1 (stereo not shown) [Compound 186]	100 to 500
COc1ccc(F)c(N2CCC(c3oc4cc(C(CC(=O)O)C5CC5)ccc4c3-c3cccc(NC(C)C)c3)CC2)c1 (stereo not shown) [Compound 187]	100 to 500
COc1ccc(F)c(N2CCC(c3oc4cc(C(CC(=O)O)C5CC5)ccc4c3-c3cccc(NCC(C)(C)C)c3)CC2)c1 (stereo not shown) [Compound 188]	100 to 500

Same assay, conditions: 4-hour treatment, class symbols

SMILES	Efficacy (%)
COc1ccc(F)c(N2CCC(c3oc4cc([C@H](CC(=O)O)C5CC5)ccc4c3-c3ccc(C(C)(C)C)cc3)CC2)c1 [Compound 170]	†† (150 ≥ Efficacy (%) > 100)
COc1ccc(F)c(N2CCC(c3oc4cc(C(CC(=O)O)C5CC5)ccc4c3-c3cccc(Cl)c3)CC2)c1 (stereo not shown) [Compound 171]	†† (150 ≥ Efficacy (%) > 100)
COc1ccc(F)c(N2CCC(c3oc4cc(C(CC(=O)O)C5CC5)ccc4c3-c3cccc(C(F)(F)F)c3)CC2)c1 (stereo not shown) [Compound 172]	† (100 ≥ Efficacy (%) > 50)
COc1ccc(F)c(N2CCC(c3oc4cc([C@@H](CC(=O)O)C5CC5)ccc4c3-c3cccc(OC(F)(F)F)c3)CC2)c1 [Compound 173]	††† (Efficacy (%) > 150)
COc1ccc(F)c(N2CCC(c3oc4cc(C(CC(=O)O)C5CC5)ccc4c3-c3cccc(C#N)c3)CC2)c1 (stereo not shown) [Compound 174]	†† (150 ≥ Efficacy (%) > 100)
COc1ccc(F)c(N2CCC(c3oc4cc([C@@H](CC(=O)O)C5CC5)ccc4c3-c3ccc(C(C)O)cc3)CC2)c1 (stereo partly shown) [Compound 175]	†† (150 ≥ Efficacy (%) > 100)
COc1ccc(F)c(N2CCC(c3oc4cc([C@@H](CC(=O)O)C5CC5)ccc4c3-c3ccc(C(C)OC)cc3)CC2)c1 (stereo partly shown) [Compound 176]	†† (150 ≥ Efficacy (%) > 100)
COc1ccc(F)c(N2CCC(c3oc4cc([C@@H](CC(=O)O)C5CC5)ccc4c3-c3ccc(C(C)(C)O)cc3)CC2)c1 [Compound 177]	†† (150 ≥ Efficacy (%) > 100)
COc1ccc(F)c(N2CCC(c3oc4cc(C(CC(=O)O)C5CC5)ccc4c3-c3cccc(F)c3)CC2)c1 (stereo not shown) [Compound 178]	†† (150 ≥ Efficacy (%) > 100)
COc1ccc(-c2c(C3CCN(c4cc(OC)ccc4F)CC3)oc3cc([C@@H](CC(=O)O)C4CC4)ccc23)cc1 [Compound 179]	††† (Efficacy (%) > 150)
COc1ccc(F)c(N2CCC(c3oc4cc(C(CC(=O)O)C5CC5)ccc4c3-c3ccc(SC)cc3)CC2)c1 (stereo not shown) [Compound 181]	†† (150 ≥ Efficacy (%) > 100)
COc1ccc(F)c(N2CCC(c3oc4cc(C(CC(=O)O)C5CC5)ccc4c3-c3ccc(S(=O)(=O)C(C)C)cc3)CC2)c1 (stereo not shown) [Compound 183]	†† (150 ≥ Efficacy (%) > 100)
COc1ccc(F)c(N2CCC(c3oc4cc(C(CC(=O)O)C5CC5)ccc4c3-c3ccc(NC(C)C)cc3)CC2)c1 (stereo not shown) [Compound 184]	† (100 ≥ Efficacy (%) > 50)
COc1ccc(F)c(N2CCC(c3oc4cc(C(CC(=O)O)C5CC5)ccc4c3-c3ccc(N(C)C(C)C)cc3)CC2)c1 (stereo not shown) [Compound 185]	†† (150 ≥ Efficacy (%) > 100)
COc1ccc(F)c(N2CCC(c3oc4cc(C(CC(=O)O)C5CC5)ccc4c3-c3ccc(N(C(C)=O)C(C)C)cc3)CC2)c1 (stereo not shown) [Compound 186]	† (100 ≥ Efficacy (%) > 50)
COc1ccc(F)c(N2CCC(c3oc4cc(C(CC(=O)O)C5CC5)ccc4c3-c3cccc(NC(C)C)c3)CC2)c1 (stereo not shown) [Compound 187]	†† (150 ≥ Efficacy (%) > 100)
COc1ccc(F)c(N2CCC(c3oc4cc(C(CC(=O)O)C5CC5)ccc4c3-c3cccc(NCC(C)(C)C)c3)CC2)c1 (stereo not shown) [Compound 188]	†† (150 ≥ Efficacy (%) > 100)
